# Reference: the NIST ThermoML archive (doi:10.1021/acs.jced.9b00442)
# Numbers after ± are expanded uncertainties.
# Conditions: 283.15 K; 100 kPa; Liquid; Frequency=0.0006 MHz; Alternating current cell with electrodes
row,Compound,electrical conductivity [S/m]
1,C[N+](CCO)(CCO)CCO.O=S(=O)([N-]S(=O)(=O)C(F)(F)F)C(F)(F)F,0.01 ± 0.001
2,CC[N+](CCO)(CCO)CCO.O=S(=O)([N-]S(=O)(=O)C(F)(F)F)C(F)(F)F,0.007 ± 0.001
3,CCCC[N+](CCO)(CCO)CCO.O=S(=O)([N-]S(=O)(=O)C(F)(F)F)C(F)(F)F,0.004 ± 0.001
4,CC[N+](C)(CCO)CCO.O=S(=O)([N-]S(=O)(=O)C(F)(F)F)C(F)(F)F,0.027 ± 0.001

# Same assay, conditions: 288.15 K; 100 kPa; Liquid; Concentric cylinders viscometry
row,Compound,viscosity [mPa·s]
1,C[N+](CCO)(CCO)CCO.O=S(=O)([N-]S(=O)(=O)C(F)(F)F)C(F)(F)F,1283.1 ± 73
2,CC[N+](CCO)(CCO)CCO.O=S(=O)([N-]S(=O)(=O)C(F)(F)F)C(F)(F)F,2041.7 ± 120
3,CCCC[N+](CCO)(CCO)CCO.O=S(=O)([N-]S(=O)(=O)C(F)(F)F)C(F)(F)F,2752.6 ± 180
4,CC[N+](C)(CCO)CCO.O=S(=O)([N-]S(=O)(=O)C(F)(F)F)C(F)(F)F,536.2 ± 27

# Same assay, conditions: 288.15 K; 100 kPa; Liquid; Frequency=0.0006 MHz; Alternating current cell with electrodes
row,Compound,electrical conductivity [S/m]
1,C[N+](CCO)(CCO)CCO.O=S(=O)([N-]S(=O)(=O)C(F)(F)F)C(F)(F)F,0.017 ± 0.001
2,CC[N+](CCO)(CCO)CCO.O=S(=O)([N-]S(=O)(=O)C(F)(F)F)C(F)(F)F,0.011 ± 0.001
3,CCCC[N+](CCO)(CCO)CCO.O=S(=O)([N-]S(=O)(=O)C(F)(F)F)C(F)(F)F,0.007 ± 0.001
4,CC[N+](C)(CCO)CCO.O=S(=O)([N-]S(=O)(=O)C(F)(F)F)C(F)(F)F,0.04 ± 0.001

# Same assay, conditions: 288.15 K; 100 kPa; Liquid; Vibrating tube method
row,Compound,mass density [kg/m3]
1,CC[N+](CCO)(CCO)CCO.O=S(=O)([N-]S(=O)(=O)C(F)(F)F)C(F)(F)F,1538.5 ± 1.2
2,CC[N+](C)(CCO)CCO.O=S(=O)([N-]S(=O)(=O)C(F)(F)F)C(F)(F)F,1524.5 ± 1.2

# Same assay, conditions: 289.15 K; 100 kPa; Liquid; Vibrating tube method
row,Compound,mass density [kg/m3]
1,C[N+](CCO)(CCO)CCO.O=S(=O)([N-]S(=O)(=O)C(F)(F)F)C(F)(F)F,1574.9 ± 1.2
2,CC[N+](CCO)(CCO)CCO.O=S(=O)([N-]S(=O)(=O)C(F)(F)F)C(F)(F)F,1537.6 ± 1.2
3,CCCC[N+](CCO)(CCO)CCO.O=S(=O)([N-]S(=O)(=O)C(F)(F)F)C(F)(F)F,1464.4 ± 1.2
4,CC[N+](C)(CCO)CCO.O=S(=O)([N-]S(=O)(=O)C(F)(F)F)C(F)(F)F,1523.6 ± 1.2

# Same assay, conditions: 290.15 K; 100 kPa; Liquid; Vibrating tube method
row,Compound,mass density [kg/m3]
1,C[N+](CCO)(CCO)CCO.O=S(=O)([N-]S(=O)(=O)C(F)(F)F)C(F)(F)F,1574 ± 1.2
2,CC[N+](CCO)(CCO)CCO.O=S(=O)([N-]S(=O)(=O)C(F)(F)F)C(F)(F)F,1536.7 ± 1.2
3,CCCC[N+](CCO)(CCO)CCO.O=S(=O)([N-]S(=O)(=O)C(F)(F)F)C(F)(F)F,1463.6 ± 1.2
4,CC[N+](C)(CCO)CCO.O=S(=O)([N-]S(=O)(=O)C(F)(F)F)C(F)(F)F,1522.7 ± 1.2

# Same assay, conditions: 291.15 K; 100 kPa; Liquid; Vibrating tube method
row,Compound,mass density [kg/m3]
1,C[N+](CCO)(CCO)CCO.O=S(=O)([N-]S(=O)(=O)C(F)(F)F)C(F)(F)F,1573.1 ± 1.2
2,CC[N+](CCO)(CCO)CCO.O=S(=O)([N-]S(=O)(=O)C(F)(F)F)C(F)(F)F,1535.9 ± 1.2
3,CCCC[N+](CCO)(CCO)CCO.O=S(=O)([N-]S(=O)(=O)C(F)(F)F)C(F)(F)F,1462.7 ± 1.2
4,CC[N+](C)(CCO)CCO.O=S(=O)([N-]S(=O)(=O)C(F)(F)F)C(F)(F)F,1521.7 ± 1.2

# Same assay, conditions: 292.15 K; 100 kPa; Liquid; Vibrating tube method
row,Compound,mass density [kg/m3]
1,C[N+](CCO)(CCO)CCO.O=S(=O)([N-]S(=O)(=O)C(F)(F)F)C(F)(F)F,1572.2 ± 1.2
2,CC[N+](CCO)(CCO)CCO.O=S(=O)([N-]S(=O)(=O)C(F)(F)F)C(F)(F)F,1535 ± 1.2
3,CCCC[N+](CCO)(CCO)CCO.O=S(=O)([N-]S(=O)(=O)C(F)(F)F)C(F)(F)F,1461.8 ± 1.2
4,CC[N+](C)(CCO)CCO.O=S(=O)([N-]S(=O)(=O)C(F)(F)F)C(F)(F)F,1520.8 ± 1.2

# Same assay, conditions: 293.15 K; 100 kPa; Liquid; Concentric cylinders viscometry
row,Compound,viscosity [mPa·s]
1,C[N+](CCO)(CCO)CCO.O=S(=O)([N-]S(=O)(=O)C(F)(F)F)C(F)(F)F,838.5 ± 45
2,CC[N+](CCO)(CCO)CCO.O=S(=O)([N-]S(=O)(=O)C(F)(F)F)C(F)(F)F,1275.4 ± 72
3,CCCC[N+](CCO)(CCO)CCO.O=S(=O)([N-]S(=O)(=O)C(F)(F)F)C(F)(F)F,1684.4 ± 100

# Same assay, conditions: 293.15 K; 100 kPa; Liquid; Frequency=0.0006 MHz; Alternating current cell with electrodes
row,Compound,electrical conductivity [S/m]
1,C[N+](CCO)(CCO)CCO.O=S(=O)([N-]S(=O)(=O)C(F)(F)F)C(F)(F)F,0.025 ± 0.001
2,CC[N+](CCO)(CCO)CCO.O=S(=O)([N-]S(=O)(=O)C(F)(F)F)C(F)(F)F,0.018 ± 0.001
3,CCCC[N+](CCO)(CCO)CCO.O=S(=O)([N-]S(=O)(=O)C(F)(F)F)C(F)(F)F,0.011 ± 0.001
4,CC[N+](C)(CCO)CCO.O=S(=O)([N-]S(=O)(=O)C(F)(F)F)C(F)(F)F,0.056 ± 0.001

# Same assay, conditions: 293.15 K; 100 kPa; Liquid; Vibrating tube method
row,Compound,mass density [kg/m3]
1,C[N+](CCO)(CCO)CCO.O=S(=O)([N-]S(=O)(=O)C(F)(F)F)C(F)(F)F,1571.3 ± 1.2
2,CC[N+](CCO)(CCO)CCO.O=S(=O)([N-]S(=O)(=O)C(F)(F)F)C(F)(F)F,1534.1 ± 1.2
3,CCCC[N+](CCO)(CCO)CCO.O=S(=O)([N-]S(=O)(=O)C(F)(F)F)C(F)(F)F,1461 ± 1.2
4,CC[N+](C)(CCO)CCO.O=S(=O)([N-]S(=O)(=O)C(F)(F)F)C(F)(F)F,1519.9 ± 1.2

# Same assay, conditions: 294.15 K; 100 kPa; Liquid; Vibrating tube method
row,Compound,mass density [kg/m3]
1,C[N+](CCO)(CCO)CCO.O=S(=O)([N-]S(=O)(=O)C(F)(F)F)C(F)(F)F,1570.4 ± 1.2
2,CC[N+](CCO)(CCO)CCO.O=S(=O)([N-]S(=O)(=O)C(F)(F)F)C(F)(F)F,1533.2 ± 1.2
3,CCCC[N+](CCO)(CCO)CCO.O=S(=O)([N-]S(=O)(=O)C(F)(F)F)C(F)(F)F,1460.1 ± 1.2
4,CC[N+](C)(CCO)CCO.O=S(=O)([N-]S(=O)(=O)C(F)(F)F)C(F)(F)F,1519 ± 1.2

# Same assay, conditions: 295.15 K; 100 kPa; Liquid; Vibrating tube method
row,Compound,mass density [kg/m3]
1,C[N+](CCO)(CCO)CCO.O=S(=O)([N-]S(=O)(=O)C(F)(F)F)C(F)(F)F,1569.5 ± 1.2
2,CC[N+](CCO)(CCO)CCO.O=S(=O)([N-]S(=O)(=O)C(F)(F)F)C(F)(F)F,1532.4 ± 1.2
3,CCCC[N+](CCO)(CCO)CCO.O=S(=O)([N-]S(=O)(=O)C(F)(F)F)C(F)(F)F,1459.2 ± 1.2
4,CC[N+](C)(CCO)CCO.O=S(=O)([N-]S(=O)(=O)C(F)(F)F)C(F)(F)F,1518 ± 1.2

# Same assay, conditions: 296.15 K; 100 kPa; Liquid; Vibrating tube method
row,Compound,mass density [kg/m3]
1,C[N+](CCO)(CCO)CCO.O=S(=O)([N-]S(=O)(=O)C(F)(F)F)C(F)(F)F,1568.6 ± 1.2
